1 compound from patent publication US10265276B2, “Pharmaceutical composition for preventing or treating arthritis or inflammatory disease containing 2-methoxy-4-(3-(4-methoxyphenyl)propyl-1-en-1-yl)phenol as active ingredient” (CHUNGBUK NATIONAL UNIVERSITY INDUSTRY-ACADEMIC COOPERATION …, priority 2015, dated 2019) can be followed below.

One data set relates to NF-κB and STAT3. Nature of the data set: EMSA and Western blotting of CAIA-induced ankle joint tissues. The format is in vivo, mouse. How it is done:
In addition, the DNA binding activities of NF-κB and STAT3 were determined by EMSA. The same amount of the total proteins (20 μg/Lane) was subjected to 10% SDS-PAGE, and STAT3, P-STAT3, p50, p65, IKK, 1 KB, and p-1lκB were detected through Western blotting. A β-actin protein or histone H was used as the control. As a result, it can be seen that MMPP inhibited the STAT3 DNA-binding activity (FIG. 12(A)), the NF-κB STAT3 DNA-binding activity (FIG. 12(B)), nuclear translocation of pSTAT3, p50 and p65, and phosphorylation of IkB, IKKb and IKKa in the CAIA-induced ankle joint tissues (FIGS. 12(C) and 12(D))

In data set [1] the test system is STAT3. Nature of the data set: Effect of STAT3 siRNA or STAT3 inhibitor on the effect of MMPP in LPS-treated RAW 264.7 cells. The format is cell-based, mouse. Also on record: dose or concentration left out as unconfirmed. How it is done: 11. Luciferase activity assay: RAW264.7 cells added to a 24-well plate at a density of 1×10^5 cells/well. After 90% confluence, the cells were transiently infected with STAT3 siRNA (Santa Cruz Biotechnology) or a mutant STAT3 (T456A) plasmid using a mixture of STAT3 siRNA (Santa Cruz Biotechnology) or a mutant STAT3 (T456A) plasmid and WelFect-EX PLUS in OPTI-MEN. The infected cells were treated with LPS (1 μg/mL) and different concentrations of MMPP (1 to 4 μg/mL) for 12 hours. The luciferase activity was measured using a luciferase assay kit (Promega, Madison, Wis., USA).
First, a protective effect of MMPP on the LPS-induced pro-inflammatory response was tested using RAW 264.7 cells infected with STAT3 siRNA.
The RAW 264.7 cells were infected with STAT3 siRNA. After 24 hours, the infected cells were then treated with […] of LPS alone or in combination with MMPP. Thereafter, the NO generation, the iNOS and COX2 expression, and the DNA binding activity of NF-κB were measured.
Next, it was examined whether an effect of a STAT3 inhibitor in RAW 264.7 cells was limited. RAW 264.7 cells were treated with a STAT3 inhibitor […] alone or in combination with MMPP, and the NO generation, the iNOS and COX2 expression, and the DNA binding activity of NF-κB were also measured.

Data set [2] deals with RAW 264.7 cells. Nature of the data set: ROS, PGE2 and pro-inflammatory cytokine assays in LPS-induced RAW 264.7 cells. Particulars: concentration-dependent manner (0 to 4 mg/mL). The format is cell-based, mouse. As to the method: 7. PEG2 and cytokine Assays: A PGE2 assay was carried out in the cultured RAW 264.7 cells using an ELISA kit (commercially available from R&D Systems).
8. ROS Assay: An ROS assay was carried out using an ELISA kit (commercially available from Cell Biolabs Inc.).
(§1) RAW 264.7 cells were transiently infected with a STAT3-luciferase construct, treated with LPS (1 μg/mL) alone or a combination of MMPP and LPS, and then activated for 12 hours. Thereafter, the luciferase activity, the ROS and PGE2 expression, and a level of pro-inflammatory cytokines were determined.

For data set [3], the target named is T1, STAT3 (Mus musculus, UniProt P42227).
T1 construct: a cell lysate containing a recombinant STAT3 protein or a STAT3 protein; endogenous in cells; host or cells: RAW 264.7
Nature of the data set: Pull-down assay, MMPP conjugated to Sepharose 6B beads. The class given is binding. Particulars: recombinant STAT3 protein and cell lysate containing STAT3 from RAW 264.7 cells. As to the method:
As a method for isolating a protein complex, a pull-down assay is an assay for checking a protein-protein interaction. To identify a protein interacting with MMPP, MMPP was bound to […] epoxy-activated Sepharose 6B (Sigma, St Louis, Mo., United States).
To check the interaction between MMPP and STAT3, a pull-down assay was carried out. MMPP was conjugated to epoxy-activated Sepharose 6B. A pull-down assay was performed using an interaction between a cell lysate containing a recombinant STAT3 protein or a STAT3 protein and MMPP conjugated to Sepharose 6B beads. […] Referring to FIG. 2(D), it can also be seen that the binding of MMPP to mutant STAT3 Thr456A was reduced, compared to the STAT3.

Data set [4] deals with RAW 264.7 cells. Nature of the data set: Cell viability (MTT assay) in RAW 264.7 cells. The format is cell-based, mouse. Particulars: up to 4 mg/mL. As to the method: As mouse macrophages, RAW 264.7 macrophages were cultured in a DMEM medium supplemented with 10% FBS. […] of the medium was treated with MMPP, and then stabilized for an hour.
An MTT reagent was added at a concentration of 0.5 mg/mL, and the cells were cultured at 37° C. in an incubator. After the medium was completely removed when 70% of the cells formed crystals, […] of DMSO was added to dissolve the crystals. Subsequently, the optical density was measured at 550 nm.
Morphological changes of the cells were observed under a microscope, and the cell viability was determined using an MTT assay.

A further data set concerns iNOS and COX-2. Nature of the data set: Western blotting of iNOS and COX-2 expression in LPS-induced RAW 264.7 cells. As to conditions: LPS and MMPP. Also on record: dose or concentration left out as unconfirmed. The class given is cell-based, mouse.
Data set [5] deals with STAT3. Nature of the data set: STAT3-luciferase activity assay in LPS-induced RAW 264.7 cells. Particulars: concentration-dependent manner (0 to 4 mg/mL). The class given is cell-based, mouse. How it is done: (§2) 9. Cell infection: RAW 264.7 cells (5×10^4 cells/well) were added to a 24-well plate, and transiently infected with a STAT3-luciferase reporter plasmid and an iNOS-luciferase reporter plasmid using a Lipofectamine PLUS and plasmid mixture in OPTI-MEN.
11. Luciferase activity assay: RAW264.7 cells added to a 24-well plate at a density of 1×10^5 cells/well. After 90% confluence, the cells were transiently infected with STAT3 siRNA (Santa Cruz Biotechnology) or a mutant STAT3 (T456A) plasmid using a mixture of STAT3 siRNA (Santa Cruz Biotechnology) or a mutant STAT3 (T456A) plasmid and WelFect-EX PLUS in OPTI-MEN. […] The luciferase activity was measured using a luciferase assay kit (Promega, Madison, Wis., USA).
as §1

Another data set has as its system iNOS. Nature of the data set: iNOS-luciferase activity assay in LPS-induced RAW 264.7 cells. The class given is cell-based, mouse. As to conditions: LPS (1 µg/mL) and MMPP (0 to 4 µg/mL). How it is done:
as §2
In Experimental Example 4, a luciferase activity assay was carried out to determine whether MMPP inhibited generation of LPS-induced infective factors in RAW 264.7 cells. RAW 264.7 cells were transiently infected with an iNOS-luciferase construct, treated with LPS (1 μg/mL) alone or a combination of MMPP and LPS, and then activated for 12 hours.

Like-named read-outs stand apart in the source and are kept apart here.

T1 sequence (P42227 whole entry): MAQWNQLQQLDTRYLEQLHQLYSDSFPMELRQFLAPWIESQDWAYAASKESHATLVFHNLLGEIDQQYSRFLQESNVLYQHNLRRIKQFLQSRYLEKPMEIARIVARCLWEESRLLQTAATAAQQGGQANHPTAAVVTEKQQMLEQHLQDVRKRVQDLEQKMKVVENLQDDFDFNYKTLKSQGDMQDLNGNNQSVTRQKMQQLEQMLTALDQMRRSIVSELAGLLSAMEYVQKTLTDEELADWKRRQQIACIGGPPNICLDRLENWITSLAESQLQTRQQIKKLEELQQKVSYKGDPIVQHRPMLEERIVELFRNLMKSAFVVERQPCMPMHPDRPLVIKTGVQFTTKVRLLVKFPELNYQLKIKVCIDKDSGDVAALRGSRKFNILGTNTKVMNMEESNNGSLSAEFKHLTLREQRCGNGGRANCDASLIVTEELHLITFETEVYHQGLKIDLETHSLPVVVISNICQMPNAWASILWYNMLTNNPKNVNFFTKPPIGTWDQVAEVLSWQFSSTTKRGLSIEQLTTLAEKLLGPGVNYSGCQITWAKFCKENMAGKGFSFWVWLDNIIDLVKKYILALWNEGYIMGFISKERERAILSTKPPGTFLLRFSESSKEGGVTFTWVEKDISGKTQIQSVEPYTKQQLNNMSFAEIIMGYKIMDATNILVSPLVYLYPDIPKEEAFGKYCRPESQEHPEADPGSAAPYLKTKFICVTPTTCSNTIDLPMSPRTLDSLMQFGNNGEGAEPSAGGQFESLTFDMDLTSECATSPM

Consider `COc1ccc(C/C=C/c2ccc(O)c(OC)c2)cc1` [MMPP, 2-methoxy-4-(3-(4-methoxyphenyl)prop-1-en-1-yl)phenol], for which, in the data set with NF-κB and STAT3, the “NF-κB STAT3 DNA-binding activity” value is “inhibited”; the “STAT3 DNA-binding activity” value was “inhibited”; the “nuclear translocation of pSTAT3, p50 and p65” value is “inhibited”; the “phosphorylation of IkB, IKKb and IKKa” value is “inhibited”. Also, in the data set with STAT3 [1], the “inhibitory effect of MMPP on LPS-induced NO generation, iNOS and COX2 expression, and NF-κB activity” value is listed as “completely limited”. In the data set with STAT3 [1] (STAT3 knock-down cells (STAT3 siRNA)), the “inhibitory effect of MMPP on LPS-induced NO generation, iNOS and COX2 expression, and NF-κB activity” value was “limited”. Further, in the data set with RAW 264.7 cells [2], the PGE2 expression entry is “inhibited”; the ROS expression entry was “inhibited”; the “level of pro-inflammatory cytokines (TNF-α, IL-6 and IL-1)” value is reported as “inhibited”. The “interaction with STAT3 in pull-down assay” value on STAT3 [3] is reported as “mediated the interaction”. Besides, in the data set with RAW 264.7 cells [4] (RAW 264.7 cells), the toxicity entry is “no toxicity”. Also, the “viability of the LPS-induced RAW 264.7 cells” value with RAW 264.7 cells [4] is reported as “not affected”. For the same compound, the “iNOS and COX-2 expression” value in the data set on iNOS and COX-2 is “reduced in a concentration-dependent manner”. Besides, the “LPS-induced STAT3 luciferase activity” value in the data set with STAT3 [5] was “inhibited”. Further, the iNOS luciferase activity result in the data set on iNOS is “reduced in a concentration-dependent manner”.
